# Target: CDK7/Cyclin H/MNAT1 (Homo sapiens, UniProt P50613)
# Assay: Inhibition of Kinase Activity: Compounds of the invention were assayed for activity against a variety of different kinases.
# Format: protein-complex assay
# Sequence of CDK7/Cyclin H/MNAT1 (P51946 whole entry): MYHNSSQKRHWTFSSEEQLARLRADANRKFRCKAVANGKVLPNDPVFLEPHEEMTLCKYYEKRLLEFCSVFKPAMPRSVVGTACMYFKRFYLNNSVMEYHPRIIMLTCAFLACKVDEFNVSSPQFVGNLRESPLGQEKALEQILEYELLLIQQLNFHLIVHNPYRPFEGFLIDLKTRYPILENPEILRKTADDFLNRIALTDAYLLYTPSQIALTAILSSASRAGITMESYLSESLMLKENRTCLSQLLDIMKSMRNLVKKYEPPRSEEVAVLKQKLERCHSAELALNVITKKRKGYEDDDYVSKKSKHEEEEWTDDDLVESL
# Sequence of CDK7/Cyclin H/MNAT1 (P50613 whole entry): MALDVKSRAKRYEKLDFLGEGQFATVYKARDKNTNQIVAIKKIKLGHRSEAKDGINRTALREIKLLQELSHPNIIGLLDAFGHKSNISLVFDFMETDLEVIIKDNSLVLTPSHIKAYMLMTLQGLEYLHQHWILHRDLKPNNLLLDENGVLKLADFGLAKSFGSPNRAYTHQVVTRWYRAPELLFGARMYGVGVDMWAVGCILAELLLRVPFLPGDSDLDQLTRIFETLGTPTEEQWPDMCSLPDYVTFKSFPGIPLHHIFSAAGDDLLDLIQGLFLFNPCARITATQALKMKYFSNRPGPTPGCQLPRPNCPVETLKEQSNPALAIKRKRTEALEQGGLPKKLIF
# Sequence of CDK7/Cyclin H/MNAT1 (P51948 whole entry, further chain): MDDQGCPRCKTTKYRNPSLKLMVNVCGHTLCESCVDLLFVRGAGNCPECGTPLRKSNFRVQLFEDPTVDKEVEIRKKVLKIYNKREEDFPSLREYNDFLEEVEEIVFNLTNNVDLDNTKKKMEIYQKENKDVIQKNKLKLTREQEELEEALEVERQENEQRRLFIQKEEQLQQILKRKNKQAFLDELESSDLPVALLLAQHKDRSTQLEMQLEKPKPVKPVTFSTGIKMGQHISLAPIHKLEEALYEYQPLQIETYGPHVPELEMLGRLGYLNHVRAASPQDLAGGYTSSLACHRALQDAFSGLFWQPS
structure (smiles),measurement,value
C=CC(=O)Nc1ccc(C(=O)Nc2nn(C)c3c2CN(C(=O)NC(C)CN(C)C)C3(C)C)cc1 (stereo unspecified),IC50,> 500 nM

# Source: ChEMBL document CHEMBL5728191, “Inhibitors of cyclin-dependent kinase 7 (CDK7)” (2020)
